From article PMC10382042, “Brevetoxin versus Brevenal Modulation of Human Nav1 Channels” (Marine Drugs, 2023)
Where “and” joins values, the source holds several entries; their conditions need not be identical. Identical values can stand only once. Like-named read-outs stand apart in the source and are kept apart here.

Columns and labels:
[1] = biological target: human Nav1.7 (Homo sapiens, UniProt Q15858); experiment: Automated patch-clamp I-V relationship (voltage dependence of activation, Gmax), Nav1.7; assay type: cell-based
Procedure: (§1) The voltage dependence of recombinant Nav channel-mediated currents exposed to PbTx-3 and brevenal was evaluated using current–voltage (I-V) relationships built for Ipeak and Ilate elicited by a standard stimulation protocol (25 ms, −100 to +60 mV, Vh −120 mV, 0.1 Hz).
(§2) The effects of extracellular exposure to PbTx-3 (PbTx-3o = 1 μM) and brevenal (Brevenalo = 10 μM) on the activation of Nav channels in neuronal and muscle cells were examined under normal intracellular ionic conditions. […] To investigate the possibility of overlapping binding of these compounds within Nav channels, Nav whole-cell currents were recorded using an intracellular solution supplemented with brevenal (Brevenali = 1 μM). After equilibration, extracellular PbTx-3o (1 μM) was applied and its modulatory effects over the current kinetics and voltage dependence of activation were compared.
(§3) Figure 4 and Figure 5 display representative current traces mediated by human recombinant Nav channels in control and upon exposure to PbTx-3 and brevenal. I-V plots from the normalized peak and late (when present) currents amplitudes (Ipeak/Ipeak^max and Ilate/Ipeak^max) were fitted to a Boltzmann function rendering the half-maximal activation potential (V0.5) and normalized macroscopic conductance (Gmax) parameters (see Section 4). The changes in V0.5 (ΔV0.5 = V0.5^Comp − V0.5^Ctr) and relative Gmax (Gmax^Rel = Gmax^Comp/Gmax^Ctr) observed in the presence of PbTx-3 and brevenal and control conditions were then calculated and compared for all assayed conditions.
(§4) Recording solutions: The extracellular solution contained (in mM) 140 NaCl, 5 KCl, 2 CaCl2, 2 MgCl2, 10 glucose, and 10 HEPES (pH 7.4 with NaOH, 298 ± 3 mOsmol/k g). Control intracellular solution (in mM): 60 CsF, 70 CsCl, 10 EGTA, 10 glucose, and 10 HEPES (pH 7.2 with CsOH, 285 ± 3 mOsmol/kg). Intracellular exposure to brevenal (1 μM) was achieved by including it in the control intracellular solution during chip filling.
(§5) Electrophysiology: Automated patch-clamp (APC) recordings were performed in a PatchLiner Octo (Nanion Technologies GmbH, Munich, Germany) equipped with two EPC-10 quadro patch-clamp amplifiers (HEKA Electronik, Lambrecht/Pfalz, Germany). PatchControl HT (Nanion) was used for cell capture, seal formation, and establishment of the whole-cell configuration, whilst voltage was controlled and currents were sampled with PatchMaster (HEKA Electronics). Recordings were performed under the whole-cell configuration using single-hole planar medium resistance NPC-16 chips (Rchip, resistance of ~2.5 MΩ) at room temperature (22–24 °C).
(§6) Peak I–V curves were fitted using:I(V) = (V − Vrev) × Gmax/(1 + exp ((V0.5 − V)/Vslope) where I is the macroscopic current, V is the command potential, Vrev is the reversal potential (mV), Gmax is the maximal conductance, V0.5 is the half-activation potential (mV), and Vslope is the slope factor (mV/e-fold).

[2] = biological target: T1, human Nav1.2 (Homo sapiens, UniProt Q99250); experiment: Automated patch-clamp I-V relationship (voltage dependence of activation, Gmax), Nav1.2; assay type: cell-based
Procedure: as §1, §2, §3, §4, §5, §6

[3] = biological target: T1, human Nav1.2; experiment: Automated patch-clamp, concentration-response and inactivation fits, Nav1.2 in HEK293; assay type: cell-based; settings: for Nav1.2 yinf: single exponential fit
Procedure: (§7) Functional modulation of recombinant human voltage-gated sodium (Nav) channels exposed to marine PbTx-3 and brevenal was assessed by automated patch-clamp electrophysiology. Neuronal Nav1.2 (CNS) and Nav1.7 (PNS), in addition to muscle Nav1.4 (skeletal) and Nav1.5 (cardiac) sodium channels, were patch-clamped in mammalian cells. Whole-cell currents mediated by human Nav1.4 and Nav1.7 overexpressed in CHO-K1 cells, as well as human Nav1.2 and Nav1.5 overexpressed in HEK293 cells, were recorded at room temperature. Currents were elicited by 25 ms test pulses to −20 mV from a holding potential (Vh) of −120 mV, delivered for 5 min at 0.1 Hz, after each full-bath solution exchange to allow current amplitude and kinetics to reach a steady state.
(§8) Current traces were scaled to maximal Ipeak and are presented as insets in Figure 2 to underline the effects (or lack thereof) of PbTx-3 and brevenal on the current kinetics of the four Nav isoforms studied. Inactivation time constants (τinact) in control and the presence of PbTx-3 and brevenal were estimated by exponential fits (see Methods) to the current decay between 15% and 85% of the depolarizing pulse. Single exponential fits adequately described τinact for the neuronal and the skeletal muscle Nav isoforms, whereas a double exponential fit was required to approximate open channel inactivation of the cardiac Nav current. Consistent with the enhancement of Ilate observed for Nav1.2, Nav1.4, and Nav1.5 in the presence of PbTx-3, significant concentration-dependent increases in the Yinf asymptote were detected (Tables S1–S3). These were mirrored by brevenal exposure in Nav1.2- and Nav1.4-mediated currents. Nevertheless, the estimated τinacts appeared insensitive to PbTx-3 and brevenal modification, with the notable exception of Nav1.4, for which high concentrations of PbTx-3 and brevenal caused a measurable slowing of the open channel inactivation time constant (Table S2).
as §4
(§9) HEK293 cells heterologously expressing human Nav1.2 (Scottish Biomedical, a kind gift from the Petrous lab, Florey Institute of Neuroscience and Mental Health, Melbourne, VIC Australia) and Nav1.5 (ChanTest Corp., Cleveland, OH, USA) were cultured in DMEM containing 10% v/v FBS and selection antibiotics to enable stable expression as per the manufacturer’s recommendation. CHOK1 expressing Nav1.4 and Nav1.7 (ChanTest) was cultured in DMEM/F12 containing 10% v/v FBS and selection antibiotics supporting stable expression as recommended by the manufacturer. Cells were maintained in a humidified 5% CO2 incubator at 37 °C, grown in T25 flasks to 70–80% confluence, and passaged every 3–4 days using TrypLE Express (Invitrogen). After harvesting with TrypLE, cells were resuspended to 10^5 cells/mL in cold extracellular solution and allowed to recover for 30 min at 4 °C before recording.
as §5
(§10) Cells between passages 6 and 12 were used. […]

[4] = biological target: human Nav1.4 (Homo sapiens, UniProt P35499); experiment: Automated patch-clamp, concentration-response and inactivation fits, Nav1.4 in CHO-K1; assay type: cell-based; settings: for Nav1.4 yinf / Nav1.4 τ inact: n = 4
Procedure: as §7, §8, §4, §9, §5, §10

[5] = system: nodose ganglion neuron Navs; settings: cited from earlier work
[6] = extracellular brevenal 10 μM, n = 5
[7] = test pulse −20 mV, Vh −120 mV, extracellular, n = 5

Sequence of human Nav1.7 (Q15858 whole entry): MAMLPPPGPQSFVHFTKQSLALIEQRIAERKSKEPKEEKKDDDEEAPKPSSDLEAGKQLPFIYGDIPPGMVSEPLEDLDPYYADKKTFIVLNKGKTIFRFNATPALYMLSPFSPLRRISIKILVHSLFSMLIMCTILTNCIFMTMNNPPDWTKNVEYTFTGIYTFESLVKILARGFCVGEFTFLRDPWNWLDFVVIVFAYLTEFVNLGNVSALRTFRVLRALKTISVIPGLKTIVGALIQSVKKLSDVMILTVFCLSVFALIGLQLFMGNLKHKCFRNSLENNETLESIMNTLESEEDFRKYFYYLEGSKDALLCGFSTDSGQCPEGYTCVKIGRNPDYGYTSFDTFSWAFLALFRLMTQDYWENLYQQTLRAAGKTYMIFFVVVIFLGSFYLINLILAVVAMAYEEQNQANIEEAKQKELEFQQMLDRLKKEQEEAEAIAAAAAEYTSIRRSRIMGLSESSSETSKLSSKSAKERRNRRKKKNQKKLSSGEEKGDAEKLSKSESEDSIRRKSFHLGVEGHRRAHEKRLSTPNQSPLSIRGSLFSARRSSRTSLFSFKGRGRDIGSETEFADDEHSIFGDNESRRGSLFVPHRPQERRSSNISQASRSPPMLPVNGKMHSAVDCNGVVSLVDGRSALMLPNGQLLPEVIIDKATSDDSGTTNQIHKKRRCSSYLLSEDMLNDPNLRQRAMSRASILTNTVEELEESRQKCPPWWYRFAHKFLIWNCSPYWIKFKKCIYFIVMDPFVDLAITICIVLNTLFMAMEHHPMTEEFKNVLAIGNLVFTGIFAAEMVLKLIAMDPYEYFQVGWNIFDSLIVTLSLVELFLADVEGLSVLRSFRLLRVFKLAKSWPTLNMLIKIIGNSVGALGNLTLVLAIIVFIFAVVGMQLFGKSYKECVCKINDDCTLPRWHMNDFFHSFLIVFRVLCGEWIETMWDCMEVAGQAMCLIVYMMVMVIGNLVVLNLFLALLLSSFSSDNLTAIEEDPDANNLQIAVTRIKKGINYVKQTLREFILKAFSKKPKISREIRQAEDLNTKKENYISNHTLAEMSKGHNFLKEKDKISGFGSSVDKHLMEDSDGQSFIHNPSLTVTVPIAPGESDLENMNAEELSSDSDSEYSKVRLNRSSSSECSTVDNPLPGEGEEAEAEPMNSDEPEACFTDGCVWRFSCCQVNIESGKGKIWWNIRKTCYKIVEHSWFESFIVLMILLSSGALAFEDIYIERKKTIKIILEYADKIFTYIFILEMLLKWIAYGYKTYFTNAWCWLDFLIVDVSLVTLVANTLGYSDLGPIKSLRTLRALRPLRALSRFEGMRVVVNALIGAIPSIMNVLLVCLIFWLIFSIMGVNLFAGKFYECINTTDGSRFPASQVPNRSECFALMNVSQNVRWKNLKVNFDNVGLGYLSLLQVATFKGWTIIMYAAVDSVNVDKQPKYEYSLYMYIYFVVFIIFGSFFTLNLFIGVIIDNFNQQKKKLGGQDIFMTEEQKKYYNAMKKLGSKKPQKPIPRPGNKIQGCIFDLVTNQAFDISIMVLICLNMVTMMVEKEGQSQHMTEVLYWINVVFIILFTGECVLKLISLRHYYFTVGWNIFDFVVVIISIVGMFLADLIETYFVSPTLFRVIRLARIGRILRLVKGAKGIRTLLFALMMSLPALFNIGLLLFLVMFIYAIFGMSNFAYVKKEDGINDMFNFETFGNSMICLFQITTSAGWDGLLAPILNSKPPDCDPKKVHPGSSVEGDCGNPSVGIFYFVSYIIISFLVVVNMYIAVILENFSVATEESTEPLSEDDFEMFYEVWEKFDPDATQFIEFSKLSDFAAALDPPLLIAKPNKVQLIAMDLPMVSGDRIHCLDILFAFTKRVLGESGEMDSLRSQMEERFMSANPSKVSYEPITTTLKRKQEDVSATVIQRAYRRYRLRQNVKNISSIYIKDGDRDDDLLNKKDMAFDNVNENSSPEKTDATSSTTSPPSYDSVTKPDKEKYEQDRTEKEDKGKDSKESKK
Sequence of human Nav1.4 (P35499 whole entry): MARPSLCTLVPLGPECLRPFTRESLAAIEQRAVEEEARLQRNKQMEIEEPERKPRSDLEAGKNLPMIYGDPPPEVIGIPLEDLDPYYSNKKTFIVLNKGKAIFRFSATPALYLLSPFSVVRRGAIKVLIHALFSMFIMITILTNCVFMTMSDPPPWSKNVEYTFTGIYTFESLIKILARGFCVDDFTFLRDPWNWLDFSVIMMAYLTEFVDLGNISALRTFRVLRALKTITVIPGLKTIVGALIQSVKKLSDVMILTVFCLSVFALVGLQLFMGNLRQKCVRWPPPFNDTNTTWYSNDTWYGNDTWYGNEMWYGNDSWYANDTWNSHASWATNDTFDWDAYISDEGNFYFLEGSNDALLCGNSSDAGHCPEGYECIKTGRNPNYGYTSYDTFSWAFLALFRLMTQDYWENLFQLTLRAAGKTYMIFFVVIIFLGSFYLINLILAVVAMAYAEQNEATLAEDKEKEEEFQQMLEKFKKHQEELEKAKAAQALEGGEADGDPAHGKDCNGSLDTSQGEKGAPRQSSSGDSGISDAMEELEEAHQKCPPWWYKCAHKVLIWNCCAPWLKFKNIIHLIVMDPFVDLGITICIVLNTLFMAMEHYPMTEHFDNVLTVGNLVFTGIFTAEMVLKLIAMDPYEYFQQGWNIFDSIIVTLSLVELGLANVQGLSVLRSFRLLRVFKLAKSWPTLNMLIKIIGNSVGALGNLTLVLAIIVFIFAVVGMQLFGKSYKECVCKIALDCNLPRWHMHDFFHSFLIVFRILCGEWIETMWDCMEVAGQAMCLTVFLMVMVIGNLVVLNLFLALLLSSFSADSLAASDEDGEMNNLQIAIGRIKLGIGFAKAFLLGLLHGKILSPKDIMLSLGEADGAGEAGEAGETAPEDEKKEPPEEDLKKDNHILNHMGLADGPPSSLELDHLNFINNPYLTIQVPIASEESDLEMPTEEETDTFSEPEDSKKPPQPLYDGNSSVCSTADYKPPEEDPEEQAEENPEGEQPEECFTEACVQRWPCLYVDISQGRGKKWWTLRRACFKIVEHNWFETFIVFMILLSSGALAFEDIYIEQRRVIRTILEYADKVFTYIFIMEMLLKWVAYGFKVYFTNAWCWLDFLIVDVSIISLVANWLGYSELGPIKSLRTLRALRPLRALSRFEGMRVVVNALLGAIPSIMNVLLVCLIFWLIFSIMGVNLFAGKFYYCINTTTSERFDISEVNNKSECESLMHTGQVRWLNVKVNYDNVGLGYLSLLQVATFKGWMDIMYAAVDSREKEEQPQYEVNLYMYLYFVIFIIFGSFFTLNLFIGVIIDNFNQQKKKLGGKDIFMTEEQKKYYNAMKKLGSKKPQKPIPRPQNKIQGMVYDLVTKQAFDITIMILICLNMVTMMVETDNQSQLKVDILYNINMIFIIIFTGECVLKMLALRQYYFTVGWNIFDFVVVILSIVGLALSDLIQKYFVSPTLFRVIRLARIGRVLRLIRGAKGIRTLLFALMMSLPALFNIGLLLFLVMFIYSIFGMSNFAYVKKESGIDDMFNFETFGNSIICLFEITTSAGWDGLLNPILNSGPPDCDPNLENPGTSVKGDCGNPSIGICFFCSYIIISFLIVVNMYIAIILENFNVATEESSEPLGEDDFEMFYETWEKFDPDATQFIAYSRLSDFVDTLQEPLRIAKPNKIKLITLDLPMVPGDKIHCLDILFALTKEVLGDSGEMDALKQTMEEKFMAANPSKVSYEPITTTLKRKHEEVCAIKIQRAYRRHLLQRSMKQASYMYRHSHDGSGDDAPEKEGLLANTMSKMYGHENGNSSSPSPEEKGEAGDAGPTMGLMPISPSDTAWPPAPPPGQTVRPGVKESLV

Compound: C=C/C=C\CC[C@H]1O[C@H]2CC[C@@]3(C)O[C@H]4[C@@H](O)C[C@@]5(C)O[C@@H](CC/C=C(C)/C(C)=C/C=O)[C@@H](C)C[C@H]5O[C@@H]4C[C@@H]3O[C@@H]2CC[C@@]1(C)O [Brevenal]
- Nav1.7 V0.5 ([1]; Brevenali-occupied channels (intracellular 1 μM), n = 4, control −20.0 ± 2.4 mV): −16.6 ± 1.7 mV
- decrease in Nav1.7 Gmax ([1]; Brevenalo 10 μM): ~ 10%
- Gmax^Rel of Nav1.7 ([1]; Brevenalo 10 μM, n = 5): 0.9 ± 0.1
- shift in V0.5 of Nav1.7 ([1]; Brevenalo 10 μM, n = 6): −4.5 ± 0.4 mV
- Nav1.2 V0.5 ([2]; Ctro:Brevenali, intracellular brevenal 1 μM, n = 4, control −22.6 ± 1.9 mV): −43.9 ± 2.3 mV
- decrease in Nav1.2 Gmax ([2]; extracellular brevenal 10 μM): ~ 40%
- Gmax^Rel of Nav1.2 [2, 6]: 0.6 ± 0.1
- ΔV0.5 of Nav1.2 activation (depolarizing shift) [2, 6]: 6.1 ± 1.0 mV
- leftward shift in Nav1.2 V0.5 vs control intracellular ([2]; intracellular dialysis with brevenal 1 μM): ~ 20 mV
- Nav1.2 τ inact ([3]; 10^-5 M, n = 4): 0.75 ± 0.10 ms
- Nav1.2 yinf ([3]; 10^-5 M, n = 4): 0.12±0.06
- Nav1.2 τ inact ([3]; 10^-6 M, n = 4): 0.65 ± 0.08 ms
- Nav1.2 yinf ([3]; 10^-6 M, n = 4): 0.10±0.07
- Nav1.2 τ inact ([3]; 10^-9 M, n = 4): 0.74 ± 0.8 ms
- Nav1.2 yinf ([3]; 10^-9 M, n = 4): 0.08±0.04
- EC50 ([3]; inhibition of peak current, −20 mV, Vh −120 mV, n = 5, read-out: Nav1.2 Ipeak EC50): 18 nM
- Nav1.2 Ipeak FC^Max (maximal fold change) [3, 7]: 0.6 ± 0.1
- Nav1.4 yinf ([4]; 10^-5 M): 0.19±0.03
- Nav1.4 τ inact ([4]; 10^-5 M): 1.16 ± 0.15 ms
- Nav1.4 yinf ([4]; 10^-6 M): 0.14±0.03
- Nav1.4 yinf ([4]; 10^-9 M): 0.09±0.01
- Nav1.4 τ inact ([4]; 10^-9 M): 0.71 ± 0.11 ms
- fold lower potency than PbTx-3 at enhancing Nav1.4-mediated Ilate ([4]; Brevenal EC50 vs PbTx-3 EC50): ~ 25 fold
- EC50 ([4]; enhancement of late current, −20 mV, Vh −120 mV, n = 5, read-out: Nav1.4 Ilate EC50): 100 nM
- EC50 ([4]; inhibition of peak current, −20 mV, Vh −120 mV, n = 5, read-out: Nav1.4 Ipeak EC50): 7.7 nM
- Nav1.4 Ilate FC^Max (maximal fold change) [4, 7]: 4.1 ± 0.8
- Nav1.4 Ipeak FC^Max (maximal fold change) [4, 7]: 0.1 ± 0.1
- Nav1.4 Ilate FC^Max (maximal fold change) ([4]; test pulse −20 mV, Vh −120 mV, extracellular, n = 5, listed as brevenal): 4.1

Compound: C=C(CO)C[C@@H]1C[C@H](O)[C@]2(C)OC3CC4OC5C[C@]6(C)O[C@]7(C)CCC8OC9C[C@]%10(C)OC%11C(C)=CC(=O)OC%11CC%10OC9C[C@@H](C)C8OC7CC6O[C@@]5(C)C/C=C\C4OC3CC2O1 (stereo partly shown) [PbTx-3, Brevetoxin PbTx-3]
- decrease in Nav1.7 maximal conductance [1]: ~ 70%
- leftward shift in activation ΔV0.5 of Nav1.7 [1]: 6.8 ± 0.7 mV
- shift in the voltage dependence of activation of Nav1.7 [1]: −10.0 ± 0.6 mV
- Gmax^Rel of Nav1.2 [2]: 0.9 ± 0.1
- Nav1.2 Ilate as % of Ipeak [2]: ~ 40%
- ΔV0.5 of Nav1.2 activation [2]: 1.5 ± 1.0 mV
- fold increase in the mean apparent single-channel open time [5]: ~ 2 fold
- lower conductance (sub-conductance) levels of PbTx-3-modified nodose Navs [5]: 10.7 pS and 21.2 pS
- Nav1.2 Ilate FC^Max (maximal fold change) [3]: 3.0 ± 0.1
- Nav1.2 τ inact [3]: 0.88 ± 0.1 ms and 0.76 ± 0.05 ms and 0.64 ± 0.14 ms
- EC50 ([3]; read-out: Nav1.2 Ilate EC50): 0.0053 nM
- Nav1.4 Ipeak FC^Max (maximal fold change) [4]: 0.03 ± 0.03
- EC50 ([4]; read-out: EC50, enhancement of Nav1.4-mediated Ilate): 4 nM
- EC50 ([4]; read-out: Nav1.4 Ilate EC50): 4.1 nM
- EC50 ([4]; read-out: Nav1.4 Ipeak EC50): 0.91 nM
